Source: US11505533B2, “Metabolically stable N-acylaminooxadiazoles useful as antibacterial agents” (MICROBIOTIX, INC., priority 2017, dated 2022)
Read-outs that look alike come from different tables or passages of the source.

Columns and labels:
CYP450, 3A4 [1] = target: T1, CYP450, 3A4 (Homo sapiens, UniProt P08684); settings: 10 µM
CYP450, 1A2 [2] = target: T2, CYP450, 1A2 (Homo sapiens, UniProt P05177); settings: 10 µM
T2 sequence (P05177 1-516): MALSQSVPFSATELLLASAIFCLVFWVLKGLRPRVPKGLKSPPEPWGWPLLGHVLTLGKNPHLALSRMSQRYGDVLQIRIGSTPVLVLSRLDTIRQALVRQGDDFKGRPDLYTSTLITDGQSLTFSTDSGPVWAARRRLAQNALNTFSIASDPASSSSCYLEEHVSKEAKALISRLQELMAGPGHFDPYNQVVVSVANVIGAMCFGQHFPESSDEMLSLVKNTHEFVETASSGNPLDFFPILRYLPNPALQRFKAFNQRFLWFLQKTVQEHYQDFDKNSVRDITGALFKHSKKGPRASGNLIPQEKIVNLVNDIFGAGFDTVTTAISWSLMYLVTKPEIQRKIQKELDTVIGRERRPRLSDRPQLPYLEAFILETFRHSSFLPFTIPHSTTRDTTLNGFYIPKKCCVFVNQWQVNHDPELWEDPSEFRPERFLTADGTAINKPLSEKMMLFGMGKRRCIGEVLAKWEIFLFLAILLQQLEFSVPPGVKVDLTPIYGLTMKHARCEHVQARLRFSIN

CYP450, 2C9 [3] = target: T3, CYP450, 2C9 (Homo sapiens, UniProt P11712); settings: 10 µM
Dopamine D2s = Dopamine D2s (Homo sapiens, UniProt P14416); assay type: binding; settings: for % Inhibition: 10 μM
Dopamine D2s, sequence (P14416 1-414 isoform P14416-2): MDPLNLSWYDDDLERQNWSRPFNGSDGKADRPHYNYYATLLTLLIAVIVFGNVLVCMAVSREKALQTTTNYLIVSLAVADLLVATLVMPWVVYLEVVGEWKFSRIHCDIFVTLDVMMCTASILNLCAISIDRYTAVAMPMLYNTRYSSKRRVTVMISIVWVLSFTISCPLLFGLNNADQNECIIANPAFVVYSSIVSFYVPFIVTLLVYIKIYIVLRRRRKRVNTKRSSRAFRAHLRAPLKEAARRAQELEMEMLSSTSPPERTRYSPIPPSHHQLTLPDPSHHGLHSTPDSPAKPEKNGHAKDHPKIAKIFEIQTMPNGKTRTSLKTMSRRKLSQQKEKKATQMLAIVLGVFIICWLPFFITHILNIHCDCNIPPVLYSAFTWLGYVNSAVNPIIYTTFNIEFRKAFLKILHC

Histamine, H1 = Histamine, H1 (Homo sapiens, UniProt P35367); assay type: binding; settings: for % Inhibition: 10 μM
CYP450, 2D6 [4] = target: T4, CYP450, 2D6 (Homo sapiens, UniProt P10635); settings: 10 µM
T4 sequence (P10635 whole entry): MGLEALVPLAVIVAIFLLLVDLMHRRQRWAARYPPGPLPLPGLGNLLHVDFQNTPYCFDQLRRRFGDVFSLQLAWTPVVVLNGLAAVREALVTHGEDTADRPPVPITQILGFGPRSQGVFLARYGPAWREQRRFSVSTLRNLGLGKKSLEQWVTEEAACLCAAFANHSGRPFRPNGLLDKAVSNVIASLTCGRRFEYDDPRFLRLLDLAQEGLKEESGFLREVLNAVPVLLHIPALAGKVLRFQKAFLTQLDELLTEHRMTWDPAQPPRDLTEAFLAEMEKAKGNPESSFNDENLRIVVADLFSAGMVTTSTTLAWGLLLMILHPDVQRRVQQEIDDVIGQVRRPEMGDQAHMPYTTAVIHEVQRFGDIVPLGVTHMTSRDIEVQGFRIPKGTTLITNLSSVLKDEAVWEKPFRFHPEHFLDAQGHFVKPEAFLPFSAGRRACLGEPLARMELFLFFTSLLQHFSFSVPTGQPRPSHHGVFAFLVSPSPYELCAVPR

[5] = system: GABAA, Flunitrazepam, Central; assay type: binding; settings: 10 μM; rat
Adrenergic α2A = target: T5, Adrenergic α2A (Homo sapiens, UniProt P08913); assay type: binding; settings: for % Inhibition: 10 μM
T5 sequence (P08913 1-465): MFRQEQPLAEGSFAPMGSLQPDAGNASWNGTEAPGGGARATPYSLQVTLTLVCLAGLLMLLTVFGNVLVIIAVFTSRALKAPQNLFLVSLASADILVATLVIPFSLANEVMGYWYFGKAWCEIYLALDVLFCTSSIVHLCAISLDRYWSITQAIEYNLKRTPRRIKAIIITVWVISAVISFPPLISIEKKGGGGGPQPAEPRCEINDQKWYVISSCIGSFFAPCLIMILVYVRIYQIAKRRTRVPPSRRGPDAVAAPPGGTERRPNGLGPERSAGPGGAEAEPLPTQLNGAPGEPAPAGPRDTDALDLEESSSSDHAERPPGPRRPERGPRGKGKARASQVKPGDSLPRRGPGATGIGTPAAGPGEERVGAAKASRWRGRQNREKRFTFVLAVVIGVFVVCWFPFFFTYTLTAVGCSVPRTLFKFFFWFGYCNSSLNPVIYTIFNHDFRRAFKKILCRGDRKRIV

[6] = in vivo
Phorbol Ester = assay type: binding; settings: 10 μM; mouse
CYP450, 2C19 [7] = target: T6, CYP450, 2C19 (Homo sapiens, UniProt P33261); settings: 10 µM
T6 sequence (P33261 whole entry): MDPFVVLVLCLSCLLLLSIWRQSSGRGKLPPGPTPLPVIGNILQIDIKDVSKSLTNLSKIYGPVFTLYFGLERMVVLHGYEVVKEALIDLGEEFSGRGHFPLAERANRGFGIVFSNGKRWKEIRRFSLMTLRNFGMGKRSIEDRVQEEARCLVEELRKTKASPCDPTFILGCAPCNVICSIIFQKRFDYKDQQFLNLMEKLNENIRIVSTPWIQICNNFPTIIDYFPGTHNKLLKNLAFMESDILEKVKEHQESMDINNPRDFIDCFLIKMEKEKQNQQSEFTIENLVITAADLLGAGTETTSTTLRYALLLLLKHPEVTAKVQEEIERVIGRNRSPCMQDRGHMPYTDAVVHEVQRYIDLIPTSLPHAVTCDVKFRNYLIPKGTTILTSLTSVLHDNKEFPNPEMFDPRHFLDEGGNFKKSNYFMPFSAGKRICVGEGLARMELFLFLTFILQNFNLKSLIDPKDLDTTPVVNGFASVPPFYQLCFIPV

Potassium Channel (KATP) = Potassium Channel (KATP) (Cricetus cricetus, UniProt Q09427); assay type: binding; settings: hamster; for % Inhibition: 10 μM
Potassium Channel (KATP), sequence (Q09427 whole entry): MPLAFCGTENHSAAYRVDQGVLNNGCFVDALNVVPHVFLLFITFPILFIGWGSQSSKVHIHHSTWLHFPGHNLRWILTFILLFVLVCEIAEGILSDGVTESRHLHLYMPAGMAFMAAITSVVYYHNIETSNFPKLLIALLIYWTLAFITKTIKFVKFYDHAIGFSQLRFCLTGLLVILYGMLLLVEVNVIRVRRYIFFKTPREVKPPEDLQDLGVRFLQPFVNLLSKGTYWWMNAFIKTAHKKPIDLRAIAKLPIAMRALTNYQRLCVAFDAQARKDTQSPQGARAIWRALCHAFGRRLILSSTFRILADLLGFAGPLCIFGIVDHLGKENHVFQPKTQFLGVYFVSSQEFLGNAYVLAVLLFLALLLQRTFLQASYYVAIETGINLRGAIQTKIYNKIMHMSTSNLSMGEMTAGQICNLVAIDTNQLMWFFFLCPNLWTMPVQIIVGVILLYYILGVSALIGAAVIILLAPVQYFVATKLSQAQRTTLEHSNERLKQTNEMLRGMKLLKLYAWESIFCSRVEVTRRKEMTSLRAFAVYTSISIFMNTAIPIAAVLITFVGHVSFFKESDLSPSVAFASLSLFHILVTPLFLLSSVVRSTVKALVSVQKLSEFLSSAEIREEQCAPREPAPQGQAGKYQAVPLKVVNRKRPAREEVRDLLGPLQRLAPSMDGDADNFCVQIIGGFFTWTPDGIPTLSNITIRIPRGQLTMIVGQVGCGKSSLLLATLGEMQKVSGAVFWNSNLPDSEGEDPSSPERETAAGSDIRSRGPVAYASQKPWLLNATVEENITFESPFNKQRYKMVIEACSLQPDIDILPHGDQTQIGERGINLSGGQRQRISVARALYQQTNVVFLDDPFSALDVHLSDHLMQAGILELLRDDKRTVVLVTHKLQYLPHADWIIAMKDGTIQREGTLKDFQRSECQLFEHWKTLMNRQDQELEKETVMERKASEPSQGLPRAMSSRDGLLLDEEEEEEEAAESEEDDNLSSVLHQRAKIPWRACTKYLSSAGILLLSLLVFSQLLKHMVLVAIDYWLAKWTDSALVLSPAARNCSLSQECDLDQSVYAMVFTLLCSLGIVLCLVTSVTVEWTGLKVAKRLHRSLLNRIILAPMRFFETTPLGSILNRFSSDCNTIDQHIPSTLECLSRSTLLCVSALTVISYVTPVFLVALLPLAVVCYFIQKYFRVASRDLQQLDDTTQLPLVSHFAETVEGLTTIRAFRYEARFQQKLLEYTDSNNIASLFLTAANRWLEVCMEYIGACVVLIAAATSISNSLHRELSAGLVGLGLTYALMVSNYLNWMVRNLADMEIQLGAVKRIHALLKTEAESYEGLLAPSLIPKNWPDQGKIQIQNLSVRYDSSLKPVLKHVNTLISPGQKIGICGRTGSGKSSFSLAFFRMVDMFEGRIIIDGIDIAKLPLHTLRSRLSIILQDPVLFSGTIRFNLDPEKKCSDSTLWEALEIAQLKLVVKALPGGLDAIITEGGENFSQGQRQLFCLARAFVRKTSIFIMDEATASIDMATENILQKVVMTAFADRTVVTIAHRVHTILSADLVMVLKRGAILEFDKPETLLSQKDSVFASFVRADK

Rolipram = assay type: binding; settings: 10 μM; rat
MRSA strain BAA-1717 = assay: Neutropenic murine thigh model; assay type: in vivo, mice; settings: 25 mg/kg PO once, 2 h after infection; CFU counts 24 hrs after dosing; n=4
Potassium Channel hERG [8] = target: T7, Potassium Channel hERG (Homo sapiens, UniProt Q12809); settings: 10 µM
T7 sequence (Q12809 whole entry): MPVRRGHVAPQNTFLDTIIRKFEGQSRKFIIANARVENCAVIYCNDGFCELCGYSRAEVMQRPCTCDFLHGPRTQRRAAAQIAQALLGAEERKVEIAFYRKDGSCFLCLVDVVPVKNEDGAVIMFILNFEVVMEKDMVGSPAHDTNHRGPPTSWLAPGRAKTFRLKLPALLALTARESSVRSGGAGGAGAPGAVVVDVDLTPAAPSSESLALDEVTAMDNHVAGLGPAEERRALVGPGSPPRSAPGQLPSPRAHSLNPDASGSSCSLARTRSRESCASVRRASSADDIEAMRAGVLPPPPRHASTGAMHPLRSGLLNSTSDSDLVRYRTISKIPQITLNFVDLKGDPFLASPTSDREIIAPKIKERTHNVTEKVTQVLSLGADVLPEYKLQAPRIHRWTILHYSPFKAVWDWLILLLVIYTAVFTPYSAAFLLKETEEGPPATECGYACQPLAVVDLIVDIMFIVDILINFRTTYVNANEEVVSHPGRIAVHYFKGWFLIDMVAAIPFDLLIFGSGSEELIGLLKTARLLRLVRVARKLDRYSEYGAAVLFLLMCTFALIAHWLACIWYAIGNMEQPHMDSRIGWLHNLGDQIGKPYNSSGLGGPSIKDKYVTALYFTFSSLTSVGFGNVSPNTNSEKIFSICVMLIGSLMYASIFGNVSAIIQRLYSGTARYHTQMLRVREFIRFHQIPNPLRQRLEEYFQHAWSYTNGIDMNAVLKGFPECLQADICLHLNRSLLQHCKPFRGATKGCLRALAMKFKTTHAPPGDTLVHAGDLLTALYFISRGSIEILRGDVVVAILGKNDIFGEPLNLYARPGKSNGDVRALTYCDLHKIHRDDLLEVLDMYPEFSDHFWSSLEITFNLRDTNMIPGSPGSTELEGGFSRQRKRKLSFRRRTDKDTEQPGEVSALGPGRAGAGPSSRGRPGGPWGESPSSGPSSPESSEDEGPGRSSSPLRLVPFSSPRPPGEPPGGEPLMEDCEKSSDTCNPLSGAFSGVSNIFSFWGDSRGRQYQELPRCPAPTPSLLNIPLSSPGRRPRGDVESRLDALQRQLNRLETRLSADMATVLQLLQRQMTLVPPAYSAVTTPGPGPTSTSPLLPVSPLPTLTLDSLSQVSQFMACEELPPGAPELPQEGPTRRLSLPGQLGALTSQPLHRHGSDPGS

[9] = target: Nicotinic Acetylcholine a1, Bungarotoxin (Homo sapiens, UniProt P02708+P07510+Q07001); assay type: binding; settings: for % Inhibition: 10 μM, human
Muscarinic M3 = Muscarinic M3 (Homo sapiens, UniProt P20309); assay type: binding; settings: for % Inhibition: 10 μM
Imidazoline I2, Central = assay type: binding; settings: 10 μM; rat
GABAA, Muscimol, Central = assay type: binding; settings: 10 μM; rat
CYP2C9 = CYP2C9 (Homo sapiens, UniProt P11712)
CYP2C19 = CYP2C19 (Homo sapiens, UniProt P33261)
CYP2D6 = CYP2D6 (Homo sapiens, UniProt P10635)
CYP2D6, sequence (P10635 whole entry): as the sequence (P10635 whole entry) above

CYP450, 2C9 [10] = target: T3, CYP450, 2C9; settings: 10 μM
CYP450, 3A4 [11] = target: T1, CYP450, 3A4; settings: 10 μM
CYP450, 2C19 [12] = target: T6, CYP450, 2C19; settings: 10 μM
CYP450, 2D6 [13] = target: T4, CYP450, 2D6; settings: 10 μM
Potassium Channel hERG [14] = target: T7, Potassium Channel hERG; settings: 10 μM
CYP450, 1A2 [15] = target: T2, CYP450, 1A2; settings: 10 μM

T1 sequence (P08684 whole entry): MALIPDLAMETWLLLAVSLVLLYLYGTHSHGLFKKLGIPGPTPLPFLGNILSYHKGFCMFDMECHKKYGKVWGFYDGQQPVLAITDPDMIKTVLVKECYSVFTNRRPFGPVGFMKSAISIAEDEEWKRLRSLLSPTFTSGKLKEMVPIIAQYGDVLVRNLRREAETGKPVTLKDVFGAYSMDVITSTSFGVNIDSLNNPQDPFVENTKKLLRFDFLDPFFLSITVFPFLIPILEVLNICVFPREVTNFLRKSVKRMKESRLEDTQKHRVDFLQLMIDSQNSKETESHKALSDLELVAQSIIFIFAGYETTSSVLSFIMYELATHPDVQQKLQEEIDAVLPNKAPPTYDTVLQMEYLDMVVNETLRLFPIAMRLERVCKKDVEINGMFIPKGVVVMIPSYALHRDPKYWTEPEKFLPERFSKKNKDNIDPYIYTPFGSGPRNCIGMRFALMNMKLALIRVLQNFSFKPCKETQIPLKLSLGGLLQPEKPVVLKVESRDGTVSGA

| SMILES | % Inhibition (Dopamine D2s) [%] | % Inhibition (Histamine, H1) [%] | % Inhibition [5] [%] | % Inhibition (Adrenergic α2A) [%] | % Inhibition (Phorbol Ester) [%] | % Inhibition (Potassium Channel (KATP)) [%] | % Inhibition (Rolipram) [%] | % Inhibition [9] [%] | % Inhibition (Muscarinic M3) [%] | % Inhibition (Imidazoline I2, Central) [%] | % Inhibition (GABAA, Muscimol, Central) [%] | % Inhibition (CYP450, 2C9 [10]) [%] | % Inhibition (CYP450, 3A4 [11]) [%] | % Inhibition (CYP450, 2C19 [12]) [%] | % Inhibition (CYP450, 2D6 [13]) [%] | % Inhibition (Potassium Channel hERG [14]) [%] | % Inhibition (CYP450, 1A2 [15]) [%] | also measured |
| --- | --- | --- | --- | --- | --- | --- | --- | --- | --- | --- | --- | --- | --- | --- | --- | --- | --- | --- |
| O=C(Nc1nnc(-c2ccc(F)cc2)o1)N1CCc2ccccc2C1 [MBX-4132] | 25 | 17 | 13 | 54 | 4 | 10 | 2 | 0 | 16 | 33 | 1 | – | – | – | – | – | – | % Inhibition (CYP450, 3A4 [1]): 7%; % Inhibition (CYP450, 1A2 [2]): 9%; % Inhibition (CYP450, 2C9 [3]): 10%; % Inhibition (CYP450, 2D6 [4]): 10%; elevated single dose tolerability [6]: no effects distinct from vehicle controls; % Inhibition (CYP450, 2C19 [7]): 44%; drop in CFU/g compared to untreated controls (MRSA strain BAA-1717): > 2 log CFU/g; % Inhibition (Potassium Channel hERG [8]): 64% |
| O=C(Nc1nnc(-c2ccc(F)cc2)o1)c1ccc(Oc2ccccc2)nc1 [MBX-4237] | – | – | 25 | – | 2 | – | 1 | – | – | 14 | −6 | – | – | – | – | – | – | inhibition at 10 µM (CYP2C9): 5%; inhibition at 10 µM (CYP2C19): 3%; inhibition at 10 µM (Dopamine D2s): -3%; inhibition at 10 µM (Histamine, H1): 6%; inhibition at 10 µM (CYP2D6): -4%; inhibition at 10 µM (Adrenergic α2A): -8%; inhibition at 10 µM (Potassium Channel (KATP)): 9%; inhibition at 10 µM [9]: -8%; inhibition at 10 µM (Muscarinic M3): 11% |
| O=C(Nc1nnc(-c2ccc(F)cc2)o1)c1ccc(OC2CCCCC2)cc1 [MBX-4292] | 1 | −8 | −1 | 3 | 2 | 8 | −8 | −4 | 0 | 10 | −4 | 10 | 4 | 9 | 2 | 8 | 5 | – |
| O=C(Nc1nnc(-c2ccc(F)cc2)o1)N1CC=C(C(F)(F)F)CC1 [MBX-4347] | −2 | 22 | 22 | 9 | 7 | 2 | −6 | 2 | 2 | −5 | 4 | 4 | 9 | 8 | 9 | 0 | 2 | – |
